Experimental data as given in the supplement of paper PMC10627819.

Key:
[1] = system: B. subtilis 168; assay: fitness (endpoint OD595 vs no drug) (fraction); higher = more growth
How it was run: (§1)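 Growth medium was TSB, LB Lennox or CY, and plates were kept at 37 °C. Inoculation was at OD595 0.01 in 384-well plates, at 30 µl per well or 55 µl for S. pneumoniae. OD595 was monitored every 30 min for 14 h and background-subtracted using the first reading. Fitness is the optical density on entering stationary phase divided by the robust mean of no-drug controls, with values capped at 1.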

[2] = system: S. aureus DSM 20231; assay: as above
How it was run: as §1

[3] = system: S. aureus Newman; assay: as above
How it was run: as §1

[4] = system: S. pneumoniae D39V; assay: as above
How it was run: as §1

[5] = system: B. subtilis 168; assay: Bliss interaction score (quartile over a dose matrix) (fitness difference); higher = more antagonism (negative = synergy)
How it was run: (§2)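 The Bliss score is observed fitness minus expected fitness, where the expected value is the product of single-drug fitness values inferred from combination data. Fitness is OD595 at entry into stationary phase normalised to the plate's robust no-drug mean and capped at 1. Scores are reported as quartiles spanning technical, biological and donor/recipient replicates.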

[6] = system: S. aureus DSM 20231; assay: as above
How it was run: as §2

[7] = system: S. aureus Newman; assay: as above
How it was run: as §2

[8] = system: S. pneumoniae D39V; assay: as above
How it was run: as §2
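Wherever Bliss interaction score (quartile over a dose matrix) is given: first quartile when negative (synergy) and third quartile when positive (antagonism).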
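Wherever fitness (endpoint OD595 vs no drug) is given: OD595 on entry to stationary phase over no-drug wells; at most 1.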

Cc1onc(-c2ccccc2)c1C(=O)N[C@@H]1C(=O)N2[C@@H]1SC(C)(C)[C@@H]2C(=O)O [Oxacillin] + CCN(CC)CCOC(=O)c1ccc(N)cc1 [Procaine]
fitness
Settings | partner 85.5 µg/mL | partner 171 µg/mL | partner 342 µg/mL
[1], first compound 0.002 µg/mL | 0.938 | 0.932 | 0.894
[1], first compound 0.004 µg/mL | 0.966 | 0.913 | 0.911
[1], first compound 0.008 µg/mL | 0.963 | 0.916 | 0.867
[2], first compound 0.0156 µg/mL | 0.782 | 0.916 | 0.852
[2], first compound 0.0312 µg/mL | 0.64 | 0.738 | 0.712
[2], first compound 0.0625 µg/mL | 0.443 | 0.513 | 0.514
[3], first compound 0.0312 µg/mL | 0.686 | – | –
[4], first compound 0.01 µg/mL | ≥ 1 | ≥ 1 | 0.998
[4], first compound 0.02 µg/mL | 0.933 | 0.932 | 0.925
[4], first compound 0.04 µg/mL | – | – | 0.497

fitness, [1], one replicate
Settings | first compound 0.075 µg/mL | first compound 0.15 µg/mL | first compound 0.3 µg/mL
partner 85.5 µg/mL | 0.637 | 0.0445 | 0.056
partner 171 µg/mL | 0.535 | 0.0452 | 0.0565
partner 342 µg/mL | 0.577 | 0.041 | 0.0536

Settings | Bliss interaction score
[5] | 0.0581
[6] | -0.0703
[7] | -0.0416
[8] | 0.0938

Cc1onc(-c2ccccc2)c1C(=O)N[C@@H]1C(=O)N2[C@@H]1SC(C)(C)[C@@H]2C(=O)O [Oxacillin] + CN1C2=CC=CC=C2N=C3C1=CC=CC3=O [Pyocyanin]
Settings | fitness
[1], first compound 0.002 µg/mL, partner 1.25 µg/mL | 0.93
[1], first compound 0.002 µg/mL, partner 2.5 µg/mL | 0.891
[1], first compound 0.002 µg/mL, partner 5 µg/mL | 0.768
[1], first compound 0.004 µg/mL, partner 1.25 µg/mL | 0.918
[1], first compound 0.004 µg/mL, partner 2.5 µg/mL | 0.839
[1], first compound 0.004 µg/mL, partner 5 µg/mL | 0.703
[1], first compound 0.008 µg/mL, partner 1.25 µg/mL | 0.847
[1], first compound 0.008 µg/mL, partner 2.5 µg/mL | 0.79
[1], first compound 0.008 µg/mL, partner 5 µg/mL | 0.675
[2], first compound 0.0156 µg/mL, partner 1.25 µg/mL | 0.761
[2], first compound 0.0156 µg/mL, partner 2.5 µg/mL | 0.766
[2], first compound 0.0156 µg/mL, partner 5 µg/mL | 0.493
[2], first compound 0.0312 µg/mL, partner 1.25 µg/mL | 0.643
[2], first compound 0.0312 µg/mL, partner 2.5 µg/mL | 0.635
[2], first compound 0.0312 µg/mL, partner 5 µg/mL | 0.468
[2], first compound 0.0625 µg/mL, partner 1.25 µg/mL | 0.48
[2], first compound 0.0625 µg/mL, partner 2.5 µg/mL | 0.482
[2], first compound 0.0625 µg/mL, partner 5 µg/mL | 0.362
[3], first compound 0.0156 µg/mL, partner 1.25 µg/mL | 0.744
[3], first compound 0.0156 µg/mL, partner 2.5 µg/mL | 0.683
[3], first compound 0.0156 µg/mL, partner 5 µg/mL | 0.424
[3], first compound 0.0312 µg/mL, partner 1.25 µg/mL | 0.625
[3], first compound 0.0312 µg/mL, partner 2.5 µg/mL | 0.596
[3], first compound 0.0312 µg/mL, partner 5 µg/mL | 0.336
[3], first compound 0.0625 µg/mL, partner 5 µg/mL | 0.305
[4], first compound 0.01 µg/mL, partner 0.325 µg/mL | ≥ 1
[4], first compound 0.01 µg/mL, partner 0.65 µg/mL | ≥ 1
[4], first compound 0.01 µg/mL, partner 1.3 µg/mL | 0.684
[4], first compound 0.02 µg/mL, partner 0.325 µg/mL | 0.988
[4], first compound 0.02 µg/mL, partner 0.65 µg/mL | 0.979
[4], first compound 0.02 µg/mL, partner 1.3 µg/mL | 0.672
[4], first compound 0.04 µg/mL, partner 0.325 µg/mL | 0.722
[4], first compound 0.04 µg/mL, partner 0.65 µg/mL | 0.781
[4], first compound 0.04 µg/mL, partner 1.3 µg/mL | 0.547

fitness, [1], one replicate
Settings | first compound 0.075 µg/mL | first compound 0.15 µg/mL | first compound 0.3 µg/mL
partner 1.25 µg/mL | 0.463 | 0.0474 | 0.0657
partner 2.5 µg/mL | 0.404 | 0.0413 | 0.0539
partner 5 µg/mL | 0.145 | 0.0518 | 0.0652

Settings | Bliss interaction score
[5] | -0.0582
[6] | -0.0528
[7] | -0.0412
[8] | 0.188

Cc1onc(-c2ccccc2)c1C(=O)N[C@@H]1C(=O)N2[C@@H]1SC(C)(C)[C@@H]2C(=O)O [Oxacillin] + CN(N=O)C(=O)N[C@@H](C=O)[C@@H](O)[C@H](O)[C@H](O)CO [Streptozotocin]
fitness, [1], one replicate
Settings | first compound 0.002 µg/mL | first compound 0.004 µg/mL | first compound 0.008 µg/mL | first compound 0.075 µg/mL | first compound 0.15 µg/mL | first compound 0.3 µg/mL
partner 0.15 µg/mL | ≥ 1 | ≥ 1 | 0.946 | 0.593 | 0.0403 | 0.0476
partner 0.3 µg/mL | 0.98 | ≥ 1 | 0.983 | 0.377 | 0.0243 | 0.0338
partner 0.6 µg/mL | 0.998 | ≥ 1 | 0.882 | 0.593 | 0.0217 | 0.0158

fitness
Settings | first compound 0.01 µg/mL | first compound 0.0156 µg/mL | first compound 0.02 µg/mL | first compound 0.0312 µg/mL | first compound 0.04 µg/mL | first compound 0.0625 µg/mL
[2], partner 0.15 µg/mL | – | 0.693 | – | 0.596 | – | 0.462
[2], partner 0.3 µg/mL | – | 0.635 | – | 0.582 | – | 0.493
[2], partner 0.6 µg/mL | – | 0.549 | – | 0.494 | – | 0.396
[3], partner 0.15 µg/mL | – | 0.663 | – | 0.613 | – | 0.538
[3], partner 0.3 µg/mL | – | 0.593 | – | 0.57 | – | 0.466
[3], partner 0.6 µg/mL | – | 0.454 | – | 0.387 | – | 0.228
[4], partner 1.2 µg/mL | 0.941 | – | 0.889 | – | 0.243 | –
[4], partner 2.4 µg/mL | 0.977 | – | 0.873 | – | 0.245 | –
[4], partner 4.8 µg/mL | 0.927 | – | 0.866 | – | 0.212 | –

Settings | Bliss interaction score
[5] | 0.0537
[6] | -0.0548
[7] | -0.0656
[8] | -0.0748

Cc1onc(-c2ccccc2)c1C(=O)N[C@@H]1C(=O)N2[C@@H]1SC(C)(C)[C@@H]2C(=O)O [Oxacillin] + CN[C@@H]1[C@H](O)[C@H](NC)[C@H]2O[C@@]3(O)C(=O)C[C@@H](C)O[C@H]3O[C@@H]2[C@H]1O [Spectinomycin]
fitness
Settings | partner 2 µg/mL | partner 4 µg/mL | partner 8 µg/mL | partner 16 µg/mL
[1], first compound 0.002 µg/mL | 0.966 | 0.984 | 0.899 | –
[1], first compound 0.004 µg/mL | ≥ 1 | ≥ 1 | 0.874 | –
[1], first compound 0.008 µg/mL | 0.982 | 0.993 | 0.87 | –
[2], first compound 0.0156 µg/mL | – | 0.779 | 0.802 | 0.764
[2], first compound 0.0312 µg/mL | – | 0.681 | 0.684 | 0.665
[2], first compound 0.0625 µg/mL | – | 0.482 | 0.497 | 0.489
[3], first compound 0.0156 µg/mL | – | 0.757 | 0.751 | 0.766
[3], first compound 0.0312 µg/mL | – | 0.688 | 0.672 | 0.586
[3], first compound 0.0625 µg/mL | – | 0.596 | 0.555 | 0.528
[4], first compound 0.01 µg/mL | – | 0.94 | 0.93 | 0.819
[4], first compound 0.02 µg/mL | – | 0.884 | 0.889 | 0.788
[4], first compound 0.04 µg/mL | – | 0.373 | 0.455 | 0.415

fitness, one replicate
Settings | first compound 0.0156 µg/mL | first compound 0.0312 µg/mL | first compound 0.0625 µg/mL | first compound 0.075 µg/mL | first compound 0.15 µg/mL | first compound 0.3 µg/mL
[1], partner 2 µg/mL | – | – | – | 0.467 | 0.0332 | 0.0357
[1], partner 4 µg/mL | – | – | – | 0.394 | 0.034 | 0.0431
[1], partner 8 µg/mL | – | – | – | 0.0241 | 0.0342 | 0.0299
[2], partner 32 µg/mL | 0.601 | 0.628 | 0.509 | – | – | –
[2], partner 64 µg/mL | 0.0615 | 0.0592 | 0.0362 | – | – | –
[3], partner 32 µg/mL | 0.483 | 0.272 | 0.135 | – | – | –
[3], partner 64 µg/mL | 0.0551 | 0.0867 | 0.0035 | – | – | –

Settings | Bliss interaction score
[5] | 0.0285
[6] | -0.0526
[7] | -0.0743
[8] | 0.0929
